Experimental data as given in patent US20230068456A1, “REAL-TIME MONITORING OF IN VIVO FREE RADICAL SCAVENGERS THROUGH HYPERPOLARIZED N-ACETYL CYSTEINE ISOTOPES” (THE UNITED STATES OF AMERICA, AS REPRESENTED BY THE …, priority 2020, published 2023).

Legend:
[1] = molecular target: T1, acylase 1 (Homo sapiens, UniProt Q03154); experiment: In vitro enzymatic assay of hyperpolarized NAC incubated with acylase 1 (1T NMR); format: biochemical; settings: without inhibitor
T1 sequence (Q03154 1-408): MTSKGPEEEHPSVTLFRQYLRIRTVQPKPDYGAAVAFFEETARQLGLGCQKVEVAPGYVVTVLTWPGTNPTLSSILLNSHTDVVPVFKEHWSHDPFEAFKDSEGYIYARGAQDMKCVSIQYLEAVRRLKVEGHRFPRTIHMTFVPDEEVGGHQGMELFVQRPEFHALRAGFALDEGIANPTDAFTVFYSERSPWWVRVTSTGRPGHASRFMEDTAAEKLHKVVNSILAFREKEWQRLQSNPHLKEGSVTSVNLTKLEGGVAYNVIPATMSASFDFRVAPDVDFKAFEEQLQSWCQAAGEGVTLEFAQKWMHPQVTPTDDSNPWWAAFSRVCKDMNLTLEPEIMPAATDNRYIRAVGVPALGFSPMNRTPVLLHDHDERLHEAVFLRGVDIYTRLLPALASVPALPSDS

[2] = test system: Hs766t; experiment: In cell dynamic 13C NMR of hyperpolarized [1-13C] NAC at 1T, Hs766t cells; format: cell-based, human
Excerpt: FIG. 2A is a in cell dynamic ^13C NMR spectra of hyperpolarized [1-^13C] NAC at 1T NMR on 20×10^6 cells of human pancreatic tumor cell lines of Hs766t (left) and expanded spectra with 100 times magnifications at 2 seconds after the hyperpolarized [1-^13C] NAC injections in Hs766t (right);
(§1) In an embodiment, a cell dynamic ^13C NMR spectra of hyperpolarized [1-^13C] NAC at 1T NMR spectrometer on human pancreatic ductal adenocarcinoma (PDAC) cell lines, which have one of the worst prognosises among common cancers and need effective diagnostic approaches, Hs766t (FIG. 2A) and SU.86.86 (FIG. 2B), in both cases, the cell dynamic ^13C-nuclear magnetic resonance (NMR) spectra of the hyperpolarized [1-^13C] […]
(§2) All of the animal experiments were conducted in compliance with the Guide for the Care and Use of Laboratory Animal Resources, and experimental protocols were approved by the Animal Care and Use Committee, National Cancer Institute (NCI-CCR-ACUC) (National Research Council, Committee for the Update of the Guide for the Care and Use of Laboratory Animals. Guide for the care and use of laboratory animals. Washington, D.C.: Institute of Laboratory Animal Resources 2011). […] Both respiration (60-90 breaths per min) and temperature (35-37° C.) were maintained at a normal physiological range and monitored continuously during the animal experiment using the adjusted anesthesia.

[3] = test system: SU.86.86; experiment: In cell dynamic 13C NMR of hyperpolarized [1-13C] NAC at 1T, SU.86.86 cells; format: cell-based, human
Excerpt: FIG. 2B is a in cell dynamic ^13C NMR spectra of hyperpolarized [1-^13C] NAC at 1T NMR on 20×10^6 cells of human pancreatic tumor cell lines of SU.86.86 (left) and expanded spectra with 100 times magnifications at 2 seconds after the hyperpolarized [1-^13C] NAC injections in SU.86.86 (right);
as §1, §2

[4] = test system: Hs766t tumor xenografts; experiment: Dynamic 13C MR spectra and CSI of hyperpolarized [1-13C] NAC at 3T MRI, Hs766t tumor xenografts; format: in vivo, mouse
Experimental: (§3) All of the animal experiments were conducted in compliance with the Guide for the Care and Use of Laboratory Animal Resources, and experimental protocols were approved by the Animal Care and Use Committee, National Cancer Institute (NCI-CCR-ACUC) (National Research Council, Committee for the Update of the Guide for the Care and Use of Laboratory Animals. Guide for the care and use of laboratory animals. Washington, D.C.: Institute of Laboratory Animal Resources 2011). The human pancreatic ductal adenocarcinoma (PDAC) cell lines, […], and SU.86.86 cells, were purchased from Threshold Pharmaceuticals (Redwood City, Calif.). Human pancreatic tumor inoculated mice were generated by subcutaneous injection of 3×10^5 cells into the right hind legs of mice. Detailed conditions for cell culture and xenograft tumor development were as described previously in K. Yamamoto, J. R. Brender, T. Seki, S. Kishimoto, N. Oshima, R. Choudhuri, S. S. Adler, E. M. Jagoda, K. Saito, N. Devasahayam, P. L. Choyke, J. B. Mitchell, and M. C. Krishna, Cancer Res 2020, 80, 2087-2093, which is incorporated herein in its entirety by reference. […] Both respiration (60-90 breaths per min) and temperature (35-37° C.) were maintained at a normal physiological range and monitored continuously during the animal experiment using the adjusted anesthesia. […]

[5] = test system: SU.86.86 tumor xenografts; experiment: Dynamic 13C MR spectra of hyperpolarized [1-13C] NAC at 3T MRI, SU.86.86 tumor xenografts; format: in vivo; settings: SU.86.86 mouse leg xenograft, iv, FIGS. 4B, 4C
Experimental: as §3

[6] = Hyperpolarized 13C chemical shift imaging (CSI) in healthy mouse body and head after iv injection

- enzymatic conversion by acylase 1 [1]: immediate production of cysteine
- time to global distribution throughout the mouse body after injection ([6]; healthy mouse, iv tail vein cannula, 13C CSI): ≤ 30 s
- tissue distribution: lung region signal ([6]; healthy mouse, iv, 13C CSI, FIG. 6A): lower signal
- metabolites in the liver and kidney regions ([6]; normal mice, in vivo, no imposed oxidative stress): not observed
SMILES: CC(=O)N[C@@H](CS)[13C](=O)O [[1-^13C] NAC, [1-^13C] N-acetyl cysteine]
- NAC-GSH formation in cell culture ([2]; Hs766t, 20×10^6 cells, FIG. 2C): can produce NAC-glutathione (NAC-GSH)
- cell membrane permeation ([2]; PDAC cell cultures (Hs766t and SU.86.86), suggested by the rapid kinetics of NAC-GSH formation): may permeabilize through cell membranes without active transport
- NAC-GSH concentrations ([3]; SU.86.86 compared with Hs766t): Lower concentrations NAC-GSH
- NAC-GSH formation in cell culture ([3]; SU.86.86, 20×10^6 cells, FIG. 2C): can produce NAC-glutathione (NAC-GSH)
- amount of NAC-GSH formed ([4]; Hs766t compared with SU.86.86 tumors, FIGS. 4C and 4D): higher in Hs766t than in SU.86.86 tumors
- NAC-GSH formation in tumor ([4]; Hs766t mouse leg xenograft, iv, FIGS. 4A, 4C): rapidly formed
- NAC-GSH formation in tumor [5]: rapidly formed
